{"source": "paper doi:10.1101/2024.02.16.580637v1", "about": "(biorxiv, 2024)", "assay_in_all_cases": "grating-coupled interferometry", "format_in_all_cases": "binding", "conditions_in_all_cases": "20 mM Tris/HCl pH 7.5, 150 mM NaCl; mass transport limitation model", "key": {"BtuG3 [1]": {"biological_target": "T1, BtuG3 (Bacteroides thetaiotaomicron, UniProt Q8A5Z1)", "T1 sequence (Q8A5Z1 34-355)": "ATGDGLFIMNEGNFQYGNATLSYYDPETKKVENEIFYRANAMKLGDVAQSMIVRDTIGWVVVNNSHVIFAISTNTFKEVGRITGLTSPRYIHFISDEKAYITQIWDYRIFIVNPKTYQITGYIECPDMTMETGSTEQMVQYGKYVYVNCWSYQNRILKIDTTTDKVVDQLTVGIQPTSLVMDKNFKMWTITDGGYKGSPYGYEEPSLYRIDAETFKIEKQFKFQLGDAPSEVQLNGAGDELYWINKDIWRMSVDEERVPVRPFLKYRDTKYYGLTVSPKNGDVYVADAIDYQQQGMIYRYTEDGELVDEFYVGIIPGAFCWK"}, "BtuG3 [2]": {"biological_target": "T2, BtuG3 (Bacteroides thetaiotaomicron, UniProt Q8A5Z1, A261W)", "T2 sequence (Q8A5Z1 34-355 A261W)": "T1 sequence (Q8A5Z1 34-355)"}, "BtuG1": {"biological_target": "T3, BtuG1 (Bacteroides thetaiotaomicron, UniProt Q8A7N4)", "T3 sequence (Q8A7N4 28-442)": "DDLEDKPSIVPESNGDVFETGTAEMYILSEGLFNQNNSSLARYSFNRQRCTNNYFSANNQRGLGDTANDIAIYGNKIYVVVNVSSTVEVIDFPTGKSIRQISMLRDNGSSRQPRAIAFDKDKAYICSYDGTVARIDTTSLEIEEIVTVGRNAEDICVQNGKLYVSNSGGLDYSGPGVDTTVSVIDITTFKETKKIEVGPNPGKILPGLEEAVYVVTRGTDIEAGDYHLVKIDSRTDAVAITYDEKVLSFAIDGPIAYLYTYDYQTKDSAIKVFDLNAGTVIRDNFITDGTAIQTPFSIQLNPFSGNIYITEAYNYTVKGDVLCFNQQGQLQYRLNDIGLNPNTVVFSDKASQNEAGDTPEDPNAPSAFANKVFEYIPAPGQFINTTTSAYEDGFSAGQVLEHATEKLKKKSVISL"}, "BtuG2": {"biological_target": "T4, BtuG2 (Bacteroides thetaiotaomicron, UniProt Q8A6D0)", "T4 sequence (Q8A6D0 47-366)": "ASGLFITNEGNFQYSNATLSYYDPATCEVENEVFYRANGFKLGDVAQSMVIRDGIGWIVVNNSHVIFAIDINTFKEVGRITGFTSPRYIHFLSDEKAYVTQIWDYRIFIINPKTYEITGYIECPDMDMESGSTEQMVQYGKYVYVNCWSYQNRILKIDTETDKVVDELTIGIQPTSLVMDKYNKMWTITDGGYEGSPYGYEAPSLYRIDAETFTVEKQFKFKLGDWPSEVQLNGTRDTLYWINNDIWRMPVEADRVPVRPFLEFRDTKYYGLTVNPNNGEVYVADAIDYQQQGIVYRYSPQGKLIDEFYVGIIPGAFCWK"}}}
{"smiles": "C/C1=C2/[N-][C@H]([C@H](CC(N)=O)[C@@]2(C)CCC(=O)NC[C@@H](C)OP(=O)([O-])O[C@H]2[C@@H](O)[C@@H](n3cnc4cc(C)c(C)cc43)O[C@@H]2CO)[C@]2(C)N=C(/C(C)=C3N=C(/C=C4N=C1[C@@H](CCC(N)=O)C\\4(C)C)[C@@H](CCC(N)=O)[C@]\\3(C)CC(N)=O)[C@@H](CCC(N)=O)[C@]2(C)CC(N)=O.[Co+3].[OH-]", "note": "[OHCbl, hydroxycobalamin]", "values": [{"measurement": "Kd", "setting": "BtuG3 [1]", "result": "2.8 · 10^-11 ± 3.9 · 10^-11 M"}, {"measurement": "Kd", "setting": "BtuG3 [2]", "result": "1.4 · 10^-10 M"}, {"measurement": "Kd", "setting": "BtuG1", "result": "3.0 · 10^-12 M"}, {"measurement": "Kd", "setting": "BtuG2", "result": "2.2 · 10^-12 M"}]}
